Literature values in patent US5648349A, “PLA2 inhibitors” (Monsanto Company, priority 1995, dated 1997).

System: rat neonatal myocytes
Conditions: rat neonatal myocytes treated with iodoacetate; Sen et al (cited); cited from earlier work

COC1=CCC2=C(CCC3C2CC[C@@]2(C)C3CC[C@@H]2N(C)CCCN(C)C)C1 (stereo partly shown) [U26,384]
release of arachidonic acid, phospholipid degradation, sarcolemmal membrane defects and release of creatine kinase induced by iodoacetate: prevented the release of arachidonic acid, phospholipid degradation, sarcolemmal membrane defects and the release of creatine kinase
